From patent US8012967B2, “Minor groove binders” (University of Strathclyde, priority 2006, dated 2011)
In brackets after ≈: the same amount, converted by molar mass. Where two headings read alike, the source gives them in different places.

Tests used:
Format in all cases: cell-based
[1] = system: Aspergillus niger (IMI 1745); experiment: MIC, Aspergillus niger; conditions: for MIC: read-out: Minimum inhibitory concentrations (MICs), A. niger
Description: (§1) The effects of compounds of the invention in relation to inhibiting the growth of various microorganisms was determined using methods known to those skilled in the art, for example in vitro methods as described in J. Med. Chem. 47, 2133-2156 (2004) and in vivo methods as described in J. Med. Microbiol. 46, 208-213 (1997), the disclosures of which documents are hereby incorporated by reference. In particular, minimum inhibitory concentrations (MICs) against microorganisms (e.g. S. Aureus, Streptococcus faecalis, Aspergillus niger, Candida albicans or Mycobacterium fortuitum) for compounds of the invention may be measured using procedures such as those described in A. J. Drummond and […] development of microbiological methods for phytochemical screening” Recent Res. Devel. […] The test wells on each 96 well microtitre plate were initially inoculated with culture medium (100 μL) using Mueller-Hinton Broth for antibacterial assays and Sabouraud Broth for antifungal assays. A solution of each test sample (100 μL) was added to one row of each plate and a series of doubling dilutions made for successive rows. Incubation was at 37° C. for antibacterial assay and 25° C. for antifungal assay. […] From the observed pattern of colour, the MIC was determined. All tests included sterility and growth controls.

[2] = system: Staphylococcus aureus Strain 2 (NCTC 6571); experiment: MIC, Staphylococcus aureus Strain 2; conditions: for MIC: read-out: Minimum inhibitory concentrations (MICs), S. aureus 2
Description: as §1

[3] = system: Streptococcus faecalis (NCTC 775); experiment: MIC, Streptococcus faecalis; conditions: for MIC: read-out: Minimum inhibitory concentrations (MICs), St. faecalis
Description: as §1

[4] = system: Staphylococcus aureus Strain 1 (BSAC04(1)) (Clinical isolate from Glasgow Royal Infirmary); experiment: MIC, Staphylococcus aureus Strain 1; conditions: Staphylococcus aureus, read-out: Minimum inhibitory concentrations (MICs), S aureus 1
Description: The effects of compounds of the invention in relation to inhibiting the growth of various microorganisms was determined using methods known to those skilled in the art, for example in vitro methods as described in J. Med. Chem. 47, 2133-2156 (2004) and in vivo methods as described in J. Med. Microbiol. 46, 208-213 (1997), the disclosures of which documents are hereby incorporated by reference.
In particular, minimum inhibitory concentrations (MICs) against microorganisms (e.g. S. Aureus, Streptococcus faecalis, Aspergillus niger, Candida albicans or Mycobacterium fortuitum) for compounds of the invention may be measured using procedures such as those described in A. J. Drummond and R. D. Waigh “The development of microbiological methods for phytochemical screening” Recent Res. Devel. Phytochem. 4, 143-152 (2000), the disclosures of which document are hereby incorporated by reference.
Sample dilutions were typically prepared by dissolving the test sample (2 mg) in sterile water (10 mL) to provide a working concentration of 200 μg/ml. The test wells on each 96 well microtitre plate were initially inoculated with culture medium (100 μL) using Mueller-Hinton Broth for antibacterial assays and Sabouraud Broth for antifungal assays. A solution of each test sample (100 μL) was added to one row of each plate and a series of doubling dilutions made for successive rows. Incubation was at 37° C. for antibacterial assay and 25° C. for antifungal assay. […] From the observed pattern of colour, the MIC was determined. All tests included sterility and growth controls.

[5] = Aspergillus niger, value in parentheses, na = not active
[6] = Aspergillus niger, value outside parentheses
[7] = Staphylococcus aureus, NCTC6571, value in parentheses, na = not active
[8] = Staphylococcus aureus, NCTC6571, value outside parentheses
[9] = Enterococcus faecalis, NCTC775, value in parentheses, na = not active
[10] = Enterococcus faecalis, NCTC775, value outside parentheses
[11] = value in parentheses, na = not active

Row | MIC [1, 5] | MIC [1, 6] | MIC [2, 7] | MIC [2, 8] | MIC [3, 9] | MIC [3, 10] | MIC [4, 11] | MIC ([4]; value outside parentheses) | SMILES | Minimum inhibitory concentrations (MICs), A. niger [1, 11] | MIC ([1]; value outside parentheses) | Minimum inhibitory concentrations (MICs), S. aureus 2 [2, 11] | MIC ([2]; value outside parentheses) | Minimum inhibitory concentrations (MICs), St. faecalis [3, 11] | MIC ([3]; value outside parentheses)
1 | 100 µg/mL | 136 µM | 50 µg/mL | 68 µM | 100 µg/mL | 136 µM | – | – | Cn1cc(NC(=O)c2cc(NC(=O)c3ccc(/C=C/c4ccc5ccccc5c4)cc3)cn2C)cc1C(=O)NCCN1CCOCC1 [Example 13, 1-Methyl-N-[1-methyl-5-({[2-(4-morpholinyl)ethyl]amino}carbonyl)-1H-pyrrol-3-yl]-4-({4-[(E)-2-(2-naphthyl)ethenyl]benzoyl}amino)-1H-pyrrole-2-carboxamide] | – | – | – | – | – | –
2 | – | – | – | – | – | – | – | – | COc1cccc(/C=C/c2cccc(C(=O)Nc3cc(C(=O)Nc4cc(C(=O)NCCCN(C)C)n(C)c4)n(C)c3)c2)c1 [Example 6] | 100 µg/mL (≈ 172 µM) | 143 µM | 50 µg/mL (≈ 85.8 µM) | 72 µM | 50 µg/mL (≈ 85.8 µM) | 72 µM
3 | 50 µg/mL | 70 µM | 25 µg/mL | 35 µM | 50 µg/mL | 70 µM | 25 µg/mL | 35 µM | CN(C)CCCNC(=O)c1cc(NC(=O)c2cc(NC(=O)c3ccc(/C=C/c4cnc5ccccc5c4)cc3)cn2C)cn1C [Example 5, N-[5-({[3-(Dimethylamino)propyl]amino}carbonyl)-1-methyl-1H-pyrrol-3-yl]-1-methyl-4-({4-[(E)-2-(3-quinolinyl)ethenyl]benzoyl}amino)-1H-pyrrole-2-carboxamide] | – | – | – | – | – | –
4 | 100 µg/mL | 122 µM | – | – | – | – | – | – | CC(C)CCc1sc(NC(=O)c2cc(NC(=O)c3ccc(/C=C/c4ccc5ccccc5n4)cc3)cn2C)nc1C(=O)NCCN1CCOCC1 [Example 19, 5-Isopentyl-2-({[1-methyl-4-({4-[(E)-2-(2-quinolinyl)ethenyl]benzoyl}amino)-1H-pyrrol-2-yl]carbonyl}amino)-N-[2-(4-morpholinyl)ethyl]-1,3-thiazole-4-carboxamide] | – | – | – | – | – | –
5 | 100 µg/mL | 138 µM | 8 µg/mL | 11 µM | 50 µg/mL | 69 µM | 2 µg/mL | 2.7 µM | COc1cccc(/C=C/c2ccc(C(=O)Nc3cc(C(=O)Nc4cc(C(=O)NCCN5CCOCC5)n(C)c4)n(C)c3)cc2)c1 [Example 1, 4-({[4-({4-[(E)-2-(3-Methoxyphenyl)ethenyl]benzoyl}amino)-1-methyl-1H-pyrrol-2-yl]carbonyl}amino)-1-methyl-N-[2-(4-morpholinyl)ethyl]-1H-pyrrole-2-carboxamide] | – | – | – | – | – | –
6 | – | – | 50 µg/mL | 75 µM | 25 µg/mL | 37 µM | 16 µg/mL | 24 µM | CN(C)CCCNC(=O)c1cc(NC(=O)c2cc(NC(=O)c3ccc(/C=C/c4ccncc4)cc3)cn2C)cn1C [Example 7, N-[5-({[3-(Dimethylamino)propyl]amino}carbonyl)-1-methyl-1H-pyrrol-3-yl]-1-methyl-4-({4-[(E)-2-(4-pyridinyl)ethenyl]benzoyl}amino)-1H-pyrrole-2-carboxamide] | – | – | – | – | – | –
7 | – | – | – | – | – | – | 8 µg/mL | 10 µM | Cn1cc(NC(=O)c2cc(NC(=O)c3csc(/C=C/c4ccc5ccccc5n4)n3)cn2C)cc1C(=O)NCCN1CCOCC1 [Example 12, N-[1-Methyl-5-({[1-methyl-5-({[2-(4-morpholinyl)ethyl]amino}carbonyl)-1H-pyrrol-3-yl]amino}carbonyl)-1H-pyrrol-3-yl]-2-[(E)-2-(2-quinolinyl)ethenyl]-1,3-thiazole-4-carboxamide] | – | – | – | – | – | –
8 | 100 µg/mL | 140 µM | 50 µg/mL | 70 µM | 50 µg/mL | 70 µM | – | – | CN(C)CCCNC(=O)c1cc(NC(=O)c2cc(NC(=O)c3cc(/C=C/c4ccc([N+](=O)[O-])cc4)cn3C)cn2C)cn1C [Example 8, N-[5-({[5-({[3-(Dimethylamino)propyl]amino}carbonyl)-1-methyl-1H-pyrrol-3-yl]amino}carbonyl)-1-methyl-1H-pyrrol-3-yl]-1-methyl-4-[(E)-2-(4-nitrophenyl)-ethenyl]-1H-pyrrole-2-carboxamide] | – | – | – | – | – | –
